Tests used:
[1] = system: HPA axis; assay: Case report: recovery of the HPA axis (ACTH, cortisol, DHEA levels) in a patient with secondary adrenal insufficiency; assay type: in vivo, human
Description: The patient is a person who developed depression for which they were placed on various psychotropic medications. They developed progressive malaise, 25 pound weight gain, muscle weakness, easing bruising, hypertension and foot stress fracture. They underwent screening DEXA bone density scan because of their personal history of fracture and a family history of advanced osteoporosis and genetically confirmed hypophosphatasia in their parent. The DEXA bone density scan disclosed a T-score of −3.4 at the lumbar spine and −3.1 at the hip. […] Further testing for secondary causes of osteoporosis included 24-hour urinary free cortisol which was markedly elevated at 499 mcg/day (range 10-80 mcg/day). Plasma ACTH level was undetectable. […], they underwent uncomplicated right laparoscopic adrenalactomy and histopathology confirmed a 3.7 cm adrenal cortical adenoma. The patient underwent a unilateral procedure, leaving one adrenal gland intact. Post-operatively the patient was placed on hydrocortisone replacement, initially at a dose of 40 mg/day given in divided doses and gradually tapered to 30 mg/day over the following several months. One year after their adrenalectomy, their hydrocortisone had been further tapered to 15 mg/day, which remained their maintenance dose. During the ensuing 6 years after their adrenalectomy, the patient generally felt unwell with symptoms of episodic nausea, headaches, lightheadedness, mood swings and generalized weakness. Quarterly measurement of serum cortisol and plasma ACTH levels (performed after holding hydrocortisone for 18 hours) consistently yielded undetectable values for both parameters. During this 6 year period, they had one pregnancy, occurring 3 years after adrenalectomy and progressing to full-term delivery of a healthy child. They had two other hospitalizations (separated by 4 years) for near-syncope, malaise, nausea and vomiting (but without hypoglycemia or hypotension). Both episodes were treated with 48-hours of intravenous stress-doses of glucocorticoids and saline, followed by improvement of their symptoms and subsequent tapering of glucocorticoids to a replacement dose of hydrocortisone 15 mg/day. The failure of the HPA axis to recover six years after adrenalectomy (despite physiological steroid dosing) prompted magnetic resonance imaging of the sella to rule out structural abnormalities of the hypothalamus, infundibulum and pituitary. This MRI was unremarkable. At that time, after a balanced discussion of risk and benefit, mifepristone 150 mg every other day was initiated and the dose of hydrocortisone 15 mg/day was continued. Over the ensuing five months, the dose of mifepristone was gradually escalated to 300 mg every other day, then 300 mg daily and finally maintained at 600 mg daily. […] The dose of hydrocortisone was lowered and ultimately stopped 8 months after initiation of mifepristone. […] The pruritis was tolerable and managed with over the counter anti-histamines. At no point during treatment with mifepristone did the patient develop signs or symptoms of adrenal insufficiency. Their menses returned 3 weeks after discontinuation of mifepristone. [table] […] Recovery of the patient's HPA axis was achieved. The patient's ACTH and cortisol levels increased in response to the drug treatment.

[2] = Case report: tolerability and side effects of mifepristone in the patient; assay type: in vivo, human
Experimental: The failure of the HPA axis to recover six years after adrenalectomy (despite physiological steroid dosing) prompted magnetic resonance imaging of the sella to rule out structural abnormalities of the hypothalamus, infundibulum and pituitary. This MRI was unremarkable. At that time, after a balanced discussion of risk and benefit, mifepristone 150 mg every other day was initiated and the dose of hydrocortisone 15 mg/day was continued. Over the ensuing five months, the dose of mifepristone was gradually escalated to 300 mg every other day, then 300 mg daily and finally maintained at 600 mg daily. […] The dose of hydrocortisone was lowered and ultimately stopped 8 months after initiation of mifepristone. […] The pruritis was tolerable and managed with over the counter anti-histamines. At no point during treatment with mifepristone did the patient develop signs or symptoms of adrenal insufficiency. Their menses returned 3 weeks after discontinuation of mifepristone.

[3] = Month 1, Mife 150 mg TIW, HC 15 mg
[4] = Month 3, Mife 300 mg TIW, HC 15 mg
[5] = Month 4, Mife 300 mg daily, HC 15 mg
[6] = Month 5, Mife 600 mg daily, HC 15 mg
[7] = Month 6, Mife 600 mg daily, HC 10 mg
[8] = Month 10, Mife 0, HC 0 (after completion of treatment)
[9] = Month 11, Mife 0, HC 0 (after completion of treatment)
[10] = patient, mifepristone up to 600 mg daily
[11] = 6 years after adrenalectomy on hydrocortisone replacement alone (15 mg/day), after holding hydrocortisone for 18 hours
[12] = Month 0, Mife dose 0, HC dose 15 mg (before mifepristone)

**Q.** Which results are given for `CC#C[C@]1(O)CC[C@H]2[C@@H]3CCC4=CC(=O)CCC4=C3[C@@H](c3ccc(N(C)C)cc3)C[C@@]21C` [mifepristone, 17-β-hydrox-11-β-(4-dimethyl-aminophenyl)17-α-(1-propynyl)estra-4,9-dien-3-one]?
**A.** ACTH [1, 3]: 15 pg/mL; Cortisol [1, 3]: <1 µg/dL; DHEA [1, 3]: <0.05 ng/mL; ACTH [1, 4]: 18 pg/mL; Cortisol [1, 4]: <1 µg/dL; DHEA [1, 4]: <0.05 ng/mL; ACTH [1, 5]: 60 pg/mL; Cortisol [1, 5]: 3.6 µg/dL; DHEA [1, 5]: <0.05 ng/mL; ACTH [1, 6]: 78 pg/mL; Cortisol [1, 6]: 4.6 µg/dL; DHEA [1, 6]: <0.05 ng/mL; ACTH [1, 7]: 173 pg/mL; Cortisol [1, 7]: 10.5 µg/dL; DHEA [1, 7]: <0.05 ng/mL; ACTH ([1]; Month 8, Mife 300 mg TIW, HC 0): 126 pg/mL; Cortisol ([1]; Month 8, Mife 300 mg TIW, HC 0): 13.6 µg/dL; DHEA ([1]; Month 8, Mife 300 mg TIW, HC 0): <0.05 ng/mL; ACTH [1, 8]: 26 pg/mL; Cortisol [1, 8]: 13.5 µg/dL; DHEA [1, 8]: <0.05 ng/mL; ACTH [1, 9]: 45 pg/mL; Cortisol [1, 9]: 15.3 µg/dL; DHEA [1, 9]: 0.053 ng/mL; levels of ACTH and cortisol after completion of the treatment ([1]; after completion of hydrocortisone and mifepristone treatment): Normal levels of ACTH and cortisol were maintained; treatment outcome of secondary adrenal insufficiency ([1]; co-administration of hydrocortisone and mifepristone): successfully treated; recovery of the HPA axis ([1]; mifepristone escalated 150 mg every other day to 600 mg daily, with hydrocortisone 15 mg/day): rapid recovery of the HPA axis was noted; time to rise in ACTH into the supra-normal range after starting mifepristone ([1]; with hydrocortisone 15 mg/day): 4 months; signs or symptoms of adrenal insufficiency during treatment ([2]; during treatment with mifepristone): At no point; time to return of menses after discontinuation of mifepristone ([2]; human, in vivo): 3 weeks; side effects [2, 10]: amenorrhea and pruritis; tolerability [2, 10]: tolerated mifepristone remarkably well

**Q.** For `C[C@]12CCC(=O)C=C1CC[C@@H]1[C@@H]2[C@@H](O)C[C@@]2(C)[C@H]1CC[C@]2(O)C(=O)CO` [hydrocortisone], which “plasma ACTH level, quarterly measurement” value [1, 11] is on record?
**A.** undetectable

**Q.** And the “serum cortisol level, quarterly measurement” value [1, 11]?
**A.** undetectable

**Q.** And the ACTH [1, 12]?
**A.** 5 pg/mL

**Q.** And the Cortisol [1, 12]?
**A.** <1 µg/dL

**Q.** And the DHEA [1, 12]?
**A.** <0.05 ng/mL
